Assay results taken from the supplement of paper PMC10307832.

How the values were obtained:
Assay in all cases: relative viability (nuclei count vs DMSO), 5 days (fraction); higher = more cells survive
NCI-H2085 = tested on: NCI-H2085
Outline: (§1)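 Lung cancer cell lines were seeded in 1536-well plates and dosed by pin tool the next day, with either a single drug or a fixed anchor-drug dose combined with five library-drug doses (not always all listed) spaced in √10 steps. Five days later, one step fixed the cells and stained their nuclei (final 0.05% Triton X-100, 1% formaldehyde, 1 ug/ml Hoechst), and nuclei were counted on 4× images. Relative viability is the nuclei count in treated wells divided by the count in vehicle wells, and each value is the median of duplicate plates.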

NCI-H2347 = tested on: NCI-H2347
Outline: as §1

COR-L23 = tested on: COR-L23
Outline: as §1

SW 1573 = tested on: SW 1573
Outline: as §1

HCC-78 = tested on: HCC-78
Outline: as §1

NCI-H358 = tested on: NCI-H358
Outline: as §1

NCI-H650 = tested on: NCI-H650
Outline: as §1

NCI-H2126 = tested on: NCI-H2126
Outline: as §1

UMC-11 = tested on: UMC-11
Outline: as §1

NCI-H2342 = tested on: NCI-H2342
Outline: as §1

LU99A = tested on: LU99A
Outline: as §1

PC-14 = tested on: PC-14
Outline: as §1

NCI-H2023 = tested on: NCI-H2023
Outline: as §1

LC-2-ad = tested on: LC-2-ad
Outline: as §1

NCI-H1651 = tested on: NCI-H1651
Outline: as §1

NCI-H1993 = tested on: NCI-H1993
Outline: as §1

HARA = tested on: HARA
Outline: as §1

HCC-15 = tested on: HCC-15
Outline: as §1

NCI-H1915 = tested on: NCI-H1915
Outline: as §1

NCI-H1355 = tested on: NCI-H1355
Outline: as §1

NCI-H838 = tested on: NCI-H838
Outline: as §1

EPLC-272H = tested on: EPLC-272H
Outline: as §1

With O=C(O)c1ccc(-c2c[nH]c3ncc(-c4ccccc4)cc23)cc1C1CCCC1 + CC(=O)Nc1cccc(-n2c(=O)n(C3CC3)c(=O)c3c(Nc4ccc(I)cc4F)n(C)c(=O)c(C)c32)c1 [Trametinib] (partner 0.02 µM) the relative viability (NCI-H2085; first compound 0.04 µM) was 0.508, the relative viability (NCI-H2085; first compound 0.1265 µM) was 0.488 and the relative viability (NCI-H2085; first compound 0.4 µM) was 0.499. For the same compound, the relative viability (NCI-H2085; first compound 1.265 µM) was 0.384, the relative viability (NCI-H2347; first compound 0.04 µM) was 0.267 and the relative viability (NCI-H2347; first compound 0.1265 µM) was 0.286. It also gave a relative viability (NCI-H2347; first compound 0.4 µM) of 0.311, a relative viability (NCI-H2347; first compound 1.265 µM) of 0.26 and a relative viability (COR-L23; first compound 0.04 µM) of 0.584. It also gave a relative viability (COR-L23; first compound 0.1265 µM) of 0.608, a relative viability (COR-L23; first compound 0.4 µM) of 0.627 and a relative viability (COR-L23; first compound 1.265 µM) of 0.507. For the same compound, the relative viability (SW 1573; first compound 0.04 µM) was 0.476, the relative viability (SW 1573; first compound 0.1265 µM) was 0.584 and the relative viability (SW 1573; first compound 0.4 µM) was 0.439. It also gave a relative viability (SW 1573; first compound 1.265 µM) of 0.365, a relative viability (HCC-78; first compound 0.1265 µM) of 0.937 and a relative viability (HCC-78; first compound 0.4 µM) of 0.945. It also gave a relative viability (HCC-78; first compound 1.265 µM) of 0.829, a relative viability (NCI-H358; first compound 0.04 µM) of 0.146 and a relative viability (NCI-H358; first compound 0.1265 µM) of 0.129. It also gave a relative viability (NCI-H358; first compound 0.4 µM) of 0.138, a relative viability (NCI-H358; first compound 1.265 µM) of 0.0857 and a relative viability (NCI-H650; first compound 0.04 µM) of 0.935. The relative viability (NCI-H650; first compound 0.1265 µM) was 0.943, the relative viability (NCI-H650; first compound 0.4 µM) was 0.879 and the relative viability (NCI-H650; first compound 1.265 µM) was 0.579. It also gave a relative viability (NCI-H2126; first compound 0.04 µM) of 0.597, a relative viability (NCI-H2126; first compound 0.1265 µM) of 0.585 and a relative viability (NCI-H2126; first compound 0.4 µM) of 0.562. For the same compound, the relative viability (NCI-H2126; first compound 1.265 µM) was 0.55, the relative viability (UMC-11; first compound 0.04 µM) was 0.702 and the relative viability (UMC-11; first compound 0.1265 µM) was 0.719. It also gave a relative viability (UMC-11; first compound 0.4 µM) of 0.711, a relative viability (UMC-11; first compound 1.265 µM) of 0.641 and a relative viability (NCI-H2342; first compound 0.04 µM) of 0.768. It also gave a relative viability (NCI-H2342; first compound 0.1265 µM) of 0.839, a relative viability (NCI-H2342; first compound 0.4 µM) of 0.906 and a relative viability (NCI-H2342; first compound 1.265 µM) of 0.711. The relative viability (LU99A; first compound 0.04 µM) was 0.575, the relative viability (LU99A; first compound 0.1265 µM) was 0.516 and the relative viability (LU99A; first compound 0.4 µM) was 0.52. It also gave a relative viability (LU99A; first compound 1.265 µM) of 0.51, a relative viability (PC-14; first compound 0.04 µM) of 0.714 and a relative viability (PC-14; first compound 0.1265 µM) of 0.75. The relative viability (PC-14; first compound 0.4 µM) was 0.703, the relative viability (PC-14; first compound 1.265 µM) was 0.688 and the relative viability (NCI-H2023; first compound 0.04 µM) was 0.525. The relative viability (NCI-H2023; first compound 0.1265 µM) was 0.55, the relative viability (NCI-H2023; first compound 0.4 µM) was 0.618 and the relative viability (NCI-H2023; first compound 1.265 µM) was 0.413. It also gave a relative viability (LC-2-ad; first compound 0.04 µM) of 0.876, a relative viability (LC-2-ad; first compound 0.1265 µM) of 0.921 and a relative viability (LC-2-ad; first compound 0.4 µM) of 0.897. For the same compound, the relative viability (LC-2-ad; first compound 1.265 µM) was 0.769, the relative viability (NCI-H1651; first compound 0.04 µM) was 0.822 and the relative viability (NCI-H1651; first compound 0.1265 µM) was 0.853. The relative viability (NCI-H1651; first compound 0.4 µM) was 0.829, the relative viability (NCI-H1651; first compound 1.265 µM) was 0.714 and the relative viability (NCI-H1993; first compound 0.04 µM) was 0.473. It also gave a relative viability (NCI-H1993; first compound 0.1265 µM) of 0.484, a relative viability (NCI-H1993; first compound 0.4 µM) of 0.42 and a relative viability (NCI-H1993; first compound 1.265 µM) of 0.575. It also gave a relative viability (HARA; first compound 0.04 µM) of 0.692, a relative viability (HARA; first compound 0.1265 µM) of 0.72 and a relative viability (HARA; first compound 0.4 µM) of 0.74. It also gave a relative viability (HARA; first compound 1.265 µM) of 0.545, a relative viability (HCC-15; first compound 0.04 µM) of 0.396 and a relative viability (HCC-15; first compound 0.1265 µM) of 0.395. For the same compound, the relative viability (HCC-15; first compound 0.4 µM) was 0.409, the relative viability (HCC-15; first compound 1.265 µM) was 0.351 and the relative viability (NCI-H1915; first compound 0.04 µM) was 0.293. It also gave a relative viability (NCI-H1915; first compound 0.1265 µM) of 0.313, a relative viability (NCI-H1915; first compound 0.4 µM) of 0.287 and a relative viability (NCI-H1915; first compound 1.265 µM) of 0.289. For the same compound, the relative viability (NCI-H1355; first compound 0.04 µM) was 0.42, the relative viability (NCI-H1355; first compound 0.1265 µM) was 0.412 and the relative viability (NCI-H1355; first compound 0.4 µM) was 0.459. It also gave a relative viability (NCI-H1355; first compound 1.265 µM) of 0.391, a relative viability (NCI-H838; first compound 0.04 µM) of 0.563 and a relative viability (NCI-H838; first compound 0.1265 µM) of 0.561. It also gave a relative viability (NCI-H838; first compound 0.4 µM) of 0.569, a relative viability (NCI-H838; first compound 1.265 µM) of 0.472 and a relative viability (EPLC-272H; first compound 0.04 µM) of 0.307. It also gave a relative viability (EPLC-272H; first compound 0.1265 µM) of 0.27, a relative viability (EPLC-272H; first compound 0.4 µM) of 0.283 and a relative viability (EPLC-272H; first compound 1.265 µM) of 0.276.
